Values of other authors, collected in paper PMC7310027, “PET imaging of soluble epoxide hydrolase in non-human primate brain with [^18F]FNDP” (EJNMMI Research, 2020).

Conditions: cited from earlier work

In the case of CC(=O)N1CCC(NC(=O)NC23CC4CC(CC(C4)C2)C3)CC1 [AR-9281, 1-(1-Acetyl-piperidin-4-yl)-3-adamantan-1-yl-urea], the BBB permeability is given as “BBB-permeable”.
